Paper PMC10853020 (Journal of medicinal chemistry, 2023)

Key:
h5-HT2CR = biological target: T1, h5-HT2CR (Homo sapiens, UniProt P28335); test: 5-HT-induced Cai^2+ release in h5-HT2CR-CHO cells; type: cell-based; conditions: 1 nM
T1 sequence (P28335 33-458): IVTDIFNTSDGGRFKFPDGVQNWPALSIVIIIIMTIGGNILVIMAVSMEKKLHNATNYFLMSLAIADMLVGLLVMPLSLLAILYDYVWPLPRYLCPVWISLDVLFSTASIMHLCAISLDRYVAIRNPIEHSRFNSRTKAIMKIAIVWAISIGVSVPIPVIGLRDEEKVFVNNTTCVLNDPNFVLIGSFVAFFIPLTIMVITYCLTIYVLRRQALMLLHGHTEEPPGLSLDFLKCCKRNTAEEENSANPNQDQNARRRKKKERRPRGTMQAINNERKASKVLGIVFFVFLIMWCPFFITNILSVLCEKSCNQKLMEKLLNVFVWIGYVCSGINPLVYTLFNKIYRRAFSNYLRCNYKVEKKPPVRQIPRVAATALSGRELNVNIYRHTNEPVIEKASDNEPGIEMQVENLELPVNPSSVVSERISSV

σ2 receptor = biological target: T2, σ2 receptor (Rattus norvegicus, UniProt Q5U3Y7); test: NIMH PDSP radioligand binding displacement
T2 sequence (Q5U3Y7 1-176): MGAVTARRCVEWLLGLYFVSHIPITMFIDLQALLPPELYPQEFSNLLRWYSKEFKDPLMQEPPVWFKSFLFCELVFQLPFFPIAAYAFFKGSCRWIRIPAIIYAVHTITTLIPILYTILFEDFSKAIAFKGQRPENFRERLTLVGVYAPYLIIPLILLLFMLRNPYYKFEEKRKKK

male Sprague–Dawley rats = test: Novelty-induced; type: in vivo, rat; conditions: 30 mg/kg ip, 30 min prior; vs vehicle; p < 0.0001
HERG = HERG (Homo sapiens, UniProt Q12809); test: NIMH PDSP radioligand binding displacement
Chain of HERG (Q12809 whole entry): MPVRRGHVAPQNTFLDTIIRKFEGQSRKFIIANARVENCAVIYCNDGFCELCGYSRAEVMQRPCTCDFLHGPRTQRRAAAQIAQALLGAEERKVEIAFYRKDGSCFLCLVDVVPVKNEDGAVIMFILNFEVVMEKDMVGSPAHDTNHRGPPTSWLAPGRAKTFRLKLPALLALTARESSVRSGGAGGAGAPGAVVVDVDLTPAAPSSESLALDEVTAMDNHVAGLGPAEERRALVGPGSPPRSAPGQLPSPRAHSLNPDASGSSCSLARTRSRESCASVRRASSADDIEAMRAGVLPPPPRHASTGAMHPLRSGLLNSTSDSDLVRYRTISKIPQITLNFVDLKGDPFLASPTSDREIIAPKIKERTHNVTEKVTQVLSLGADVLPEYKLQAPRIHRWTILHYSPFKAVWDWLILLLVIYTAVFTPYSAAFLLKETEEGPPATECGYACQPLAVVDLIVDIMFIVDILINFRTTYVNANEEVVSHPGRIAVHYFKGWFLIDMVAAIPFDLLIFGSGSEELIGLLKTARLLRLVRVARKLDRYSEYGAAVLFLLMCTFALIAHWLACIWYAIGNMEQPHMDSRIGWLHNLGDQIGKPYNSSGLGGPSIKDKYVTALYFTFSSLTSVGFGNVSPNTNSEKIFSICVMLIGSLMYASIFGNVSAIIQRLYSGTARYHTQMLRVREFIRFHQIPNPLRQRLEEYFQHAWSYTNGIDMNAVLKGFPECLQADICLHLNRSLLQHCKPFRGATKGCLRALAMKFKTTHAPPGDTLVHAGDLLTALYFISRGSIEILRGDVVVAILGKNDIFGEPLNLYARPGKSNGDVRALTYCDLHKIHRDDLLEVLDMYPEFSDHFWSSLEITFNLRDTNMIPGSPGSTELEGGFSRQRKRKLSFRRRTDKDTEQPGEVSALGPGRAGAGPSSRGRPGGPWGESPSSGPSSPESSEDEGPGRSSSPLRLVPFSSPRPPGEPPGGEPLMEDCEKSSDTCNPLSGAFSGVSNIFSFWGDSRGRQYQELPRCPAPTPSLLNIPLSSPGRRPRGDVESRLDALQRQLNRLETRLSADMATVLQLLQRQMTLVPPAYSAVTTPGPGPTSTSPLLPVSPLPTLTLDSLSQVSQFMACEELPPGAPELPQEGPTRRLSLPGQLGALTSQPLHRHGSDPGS

| Structure (SMILES) | 5-HT2CR PAM activity (h5-HT2CR) | further results |
| --- | --- | --- |
| CCCCCCCC/C=C\CCCCCCCC(=O)NCC(OCC)OCC [Compound 14, N-(2,2-Diethoxyethyl)oleamide] | did not evoke PAM activity | – |
| CCCCCCCC/C=C\CCCCCCCC(=O)NC[C@H](O)CO [Compound 10, (S)-N-(2,3-Dihydroxypropyl)oleamide] | inactive | – |
| CCCCCCCC/C=C\CCCCCCCC(=O)NCCCO [Compound 8, N-(3-Hydroxypropyl)oleamide] | potentiated 5-HT-evoked Cai^2+ release | – |
| CCCCCCCC/C=C\CCCCCCCC(=O)NC(CO)(CO)CO [Compound 13, N-(1,3-Dihydroxy-2-(hydroxymethyl)propan-2-yl)oleamide] | – | Ki (σ2 receptor): 3.6 µM; total ambulations over a 90 min session (male Sprague–Dawley rats): significantly reduced total ambulations vs vehicle |
| CCCCCCCC/C=C\CCCCCCCC(=O)NC(CO)CO [Compound 11, N-(1,3-Dihydroxypropan-2-yl)oleamide] | – | displacement of binding to the hERG potassium channel (HERG): did not displace binding |
